Measured values published in US4766147A, “Novel 5-membered cyclic compounds, process for production thereof, and pharmaceutical use thereof” (priority 1982, dated 1988).
≈ marks a conversion by molar mass, not a printed value. Each block holds one molecule with its values, some of them ahead of it.

Key:
L1210 leukemia cells [1] = assay: Inhibiting proliferation of L1210 leukemia cell; format: cell-based; conditions: Mus musculus, 96 h, 1×10^5 cells/ml, RPMI with 10% FCS, 37° C., 4 days, trypan blue
Experimental: Measurement of the Action of Inhibiting Proliferation of L1210 Leukemia Cell
L1210 leukemia cells were added to an RPMI medium containing 10% FCS (fetal calf serum), and the concentration of the cells was adjusted to 1×10^5 cells/ml. Each of the test compounds shown in Table 5 was dissolved in 99.5% ethanol. Prior to use, the final concentration of the ethanol solution was adjusted to less than 0.1%, and it was added to the culture medium. The culture medium was then maintained at 37° C. in a stationary condition for 4 days. After the cultivation, the number of surviving cells was measured by dyeing with trypan blue. As a control, 0.1% ethanol was used. A dose-reaction curve was plotted from the ratios of proliferation against the control, and IC50 was determined.

L1210 leukemia cells [2] = assay: Cyto protection: cytotoxicity on L1210 leukemia cells and safety coefficient; format: cell-based, mouse; conditions: for Safety coefficient: LD50 on the normal cells/LD50 on the L1210 cells
Experimental: (§1) Measurement of Cyto Protection
(§2) Stomach epithelial cells taken from a rabbit fetus and aortic smooth muscle cells from a rat were used as normal cells, and L1210 leukemia cells were used as cancer cells. The cytotoxicity of each of the compounds shown in Table 6 on the normal cells was xamined.
The cytotoxicities LD50) of each of the test compounds on the stomach epithelial cells and the aortic smooth muscle cells were determined.

Acute toxicity = conditions: mouse, in vivo, iv, four weeks old LR strain male mice (SPF)
Experimental: Measurement of Acute Toxicity
The acute toxicity of one typical compound of this invention was measured by a customary method using four weeks old LR strain male mice (SPF).

[3] = Cyto protection: cytotoxicity on stomach epithelial cells; format: cell-based; conditions: stomach epithelial cells; rabbit fetus cells, DME containing 20% FCS; read-out: LD50 Stomach epitherial cells
Experimental: as §1, §2
(§3) Specifically, the stomach epithelial cells were cultivated in DME containing 20% FCS, and the aortic smooth muscle cells were cultivated in MEM containing 10% CS. Each of the test compounds was dissolved in ethanol and added to the culture broth in an amount of 0.1%. The mixture was filtered through a millipore filter.
(§4) The cytotoxicities LD50) of each of the test compounds on the stomach epithelial cells and the aortic smooth muscle cells were determined. Furthermore, from the LFD50 values, the safety coefficient (LD50 on the normal cells/LD50 on the L1210 cells) was calculated, and the results are also shown in Table 6.

[4] = Cyto protection: cytotoxicity on aortic smooth muscle cells; format: cell-based; conditions: aortic smooth muscle cells; rat cells, MEM containing 10% CS; read-out: LD50 Aortic smooth muscle cells
Experimental: as §1, §2, §3, §4

Stomach epithelial cells = assay: Cyto protection: cytotoxicity on stomach epithelial cells; format: cell-based; conditions: rabbit fetus cells, DME containing 20% FCS
Experimental: as §1, §2, §3, §4

[5] = tested on: aortic smooth muscle cells; assay: Cyto protection: cytotoxicity on aortic smooth muscle cells; format: cell-based; conditions: rat cells, MEM containing 10% CS
Experimental: as §1, §2, §3, §4

[6] = tested on: Ehrlich ascites carcinoma cells; assay: Antitumor effect on Ehrlich ascites carcinoma in ICR mice; format: in vivo; conditions: 30 mg/kg/day i.p. (methyl ester) or 20 mg/kg/day i.p. (12-epimer) for 5 days; for average number of days of survival: from 24 hours after tumor inoculation
Experimental: Measurement of the Antitumor Effect On Ehrich Ascites Carcinoma
1×10^5 Ehrlich ascites carcinoma cells were intraperitoneally administred to ICR mice. After the lapse of 24 hours, 30 mg/kg/day of 7(E)-7,8-dehydroprostaglandin A1 methyl ester and 20 mg/kg/day of its 12-epimer were each intraperitoneally administered to the mice for 5 days. The periods of survival of these animals were examined.

[7] = tested on: mouse leukemia cell L1210; conditions: Biochem. Biophys. Res. Commn., 105, 956 (1982); cited from earlier work

- IC50 (L1210 leukemia cells [1]): 0.3 µg/mL (≈ 0.902 µM)
Compound: CCCCCCC=CC1C=CC(=O)C1=CCCCCCC(=O)OC (stereo not shown) [4-(1-octenyl)-5-(6-methoxycarbonylhexylidene)-2-cyclopentenone]

- IC50 (L1210 leukemia cells [1]): 0.3 µg/mL (≈ 0.876 µM)
Compound: COC(=O)CCCC#CC=C1C(=O)C=CC1C=CC(O)C1CCCC1 (stereo not shown) [4-(3-Hydroxy-3-cyclopentyl-1-propenyl)-5-(6-methoxycarbonyl-2-hexynylidene)-2-cyclopentenone]

- IC50 (L1210 leukemia cells [1]): 0.2 µg/mL (≈ 0.555 µM)
Compound: COC(=O)CCCC#CC(O)C1C(=O)C=CC1C=CC(O)C1CCCC1 (stereo not shown) [4-(3-hydroxy-3-cyclopentyl-1-propenyl)-5-(1-hydroxy-6-methoxycarbonyl-2-hexyn-1-yl)-2-cyclopentenone]

- IC50 (L1210 leukemia cells [1]): 0.3 µg/mL (≈ 1.08 µM)
Compound: CCCCC1C=CC(=O)C1=CCCCCCC(=O)OC (stereo not shown) [4-Butyl-5-(6-methoxycarbonylhexylidene)-2-cyclopentenone]

Compound: CCCCC[C@H](O)/C=C/[C@H]1C=CC(=O)/C1=C/CCCCCC(=O)O [7(E)-7,8-Dehydroprostaglandin A1]
- Safety coefficient (L1210 leukemia cells [2]): 6-25
- IC50 (L1210 leukemia cells [2]; Mus musculus, L1210, cancer cells, read-out: LD50 L1210 leukemia cells): 0.2 to 0.3 µg/mL (≈ 0.598 to 0.897 µM)
- LD50 (Acute toxicity): 140 mg/kg
- IC50 (L1210 leukemia cells [1]): 0.4 µg/mL (≈ 1.2 µM)
- CC50 [3]: 2 to 5 µg/mL (≈ 5.98 to 14.9 µM)
- CC50 [4]: 2 to 5 µg/mL (≈ 5.98 to 14.9 µM)

- IC50 (L1210 leukemia cells [1]): 0.7 µg/mL (≈ 1.99 µM)
Compound: CCCCC[C@H](O)/C=C/[C@@H]1/C(=C\CCCCCC(=O)O)C(=O)C[C@H]1O [7(E)-7,8-Dehydroprostaglandin E1]

Compound: CCCCCC(O)C=CC1C=CC(=O)C1=CCCCCCC(=O)O (stereo not shown) [12-Epimer of 7(E)-7,8-dehydroprostaglandin A1]
- Safety coefficient (L1210 leukemia cells [2]): 2.5-10
- LD50 L1210 leukemia cells (L1210 leukemia cells [2]; cancer cells): 0.2 to 0.4 µg/mL
- LD50 Stomach epitherial cells (Stomach epithelial cells): 1 to 2 µg/mL
- LD50 Aortic smooth muscle cells [5]: 1 to 2 µg/mL

Compound: CCCCC[C@H](O)/C=C/[C@@H]1C=CC(=O)/C1=C/CCCCCC(=O)OC [12-epi-(7E)-7,8-dehydro PGA1 methyl ester]
- increase of life span (ILS %) over the control [6]: 76.5%
- ratio of survival for more than 60 days [6]: 1/6
- average number of days of survival [6]: 33.0 ± 9.8 days
- IC50 (L1210 leukemia cells [1]): 0.2 µg/mL (≈ 0.574 µM)

Compound: CCCCC[C@H](O)/C=C/[C@H]1C=CC(=O)/C1=C/CCCCCC(=O)OC [(7E)-7,8-dehydro PGA1 methyl ester]
- increase of life span (ILS %) over the control [6]: 65.8%
- ratio of survival for more than 60 days [6]: 2/6
- average number of days of survival [6]: 31 ± 1.9 days

Compound: COC12C(COC(N)=O)C3=C(C(=O)C(C)=C(N)C3=O)N1CC1NC12 (stereo not shown) [Mytomycin C, reference compound]
- CC50 [3]: 0.01 to 0.02 µg/mL (≈ 0.0299 to 0.0598 µM)
- CC50 [4]: 0.01 µg/mL (≈ 0.0299 µM)

Compound: CCCCC[C@H](O)/C=C/[C@H]1C(=O)C[C@H](O)[C@@H]1C/C=C\CCCC(=O)O [PGD2]
- IC50 of PGD2 on L1210 cell [7]: 2.4 micrograms/ml
